From patent US20080234262A1 (Wyeth, priority 2007, published 2008)
Like-named read-outs stand apart in the source and are kept apart here.

Legend:
PI3K = PI3K (Homo sapiens, UniProt P42336); experiment: Fluorescence polarization assay for PI3K; assay type: biochemical;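 note: PI3K kinase reaction on PIP2 with ATP, 30-60 min, product sensed by GST-GRP with red probe in fluorescence polarization (mP), controls without enzyme and at zero time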
prostate line LNCap = experiment: In vitro cell culture growth assay (MTS), LNCap; assay type: cell-based, human; details: LNCap cells, three days after drug treatment;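 note: viable cell density read by absorbance at 490 nm, growth expressed as percent of vehicle-treated cells on the same plate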
breast line MDA468 = experiment: In vitro cell culture growth assay (MTS), MDA468; assay type: cell-based, human; details: MDA468 cells, three days after drug treatment
Method in brief: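 Steps: plate cells; add inhibitors the next day; incubate 3 days; add MTS dye, which viable cells convert metabolically; measure absorbance at 490 nm; calculate percent of control growth relative to vehicle-treated cells in the same plate.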

Sequence of PI3K (P42336 whole entry): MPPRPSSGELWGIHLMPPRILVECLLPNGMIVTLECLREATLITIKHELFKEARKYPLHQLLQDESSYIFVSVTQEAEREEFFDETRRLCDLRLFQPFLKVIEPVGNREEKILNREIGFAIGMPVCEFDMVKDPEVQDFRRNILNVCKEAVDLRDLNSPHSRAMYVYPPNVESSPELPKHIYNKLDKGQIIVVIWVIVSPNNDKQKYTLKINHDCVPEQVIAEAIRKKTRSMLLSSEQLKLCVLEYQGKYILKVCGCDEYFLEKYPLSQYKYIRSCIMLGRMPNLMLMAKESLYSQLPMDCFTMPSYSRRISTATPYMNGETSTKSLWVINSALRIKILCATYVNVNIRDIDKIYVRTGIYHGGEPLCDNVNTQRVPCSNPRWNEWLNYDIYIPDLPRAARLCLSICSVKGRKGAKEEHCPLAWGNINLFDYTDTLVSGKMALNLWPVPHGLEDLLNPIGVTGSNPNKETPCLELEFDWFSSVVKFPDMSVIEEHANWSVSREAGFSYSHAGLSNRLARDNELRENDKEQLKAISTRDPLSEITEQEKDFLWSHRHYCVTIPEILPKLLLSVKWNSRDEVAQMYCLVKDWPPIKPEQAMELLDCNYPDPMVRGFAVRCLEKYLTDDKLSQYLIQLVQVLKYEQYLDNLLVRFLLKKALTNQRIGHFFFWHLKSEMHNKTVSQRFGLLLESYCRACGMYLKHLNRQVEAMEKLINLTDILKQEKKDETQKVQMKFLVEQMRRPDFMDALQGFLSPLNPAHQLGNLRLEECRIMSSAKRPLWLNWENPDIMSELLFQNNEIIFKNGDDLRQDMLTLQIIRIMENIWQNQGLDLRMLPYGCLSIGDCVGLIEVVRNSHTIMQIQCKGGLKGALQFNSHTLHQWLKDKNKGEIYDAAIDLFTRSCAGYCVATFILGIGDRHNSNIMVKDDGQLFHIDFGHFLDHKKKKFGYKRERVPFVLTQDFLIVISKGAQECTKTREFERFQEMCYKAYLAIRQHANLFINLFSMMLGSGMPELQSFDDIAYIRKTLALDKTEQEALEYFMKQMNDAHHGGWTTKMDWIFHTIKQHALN
Sequence of PI3K (P27986 whole entry partner): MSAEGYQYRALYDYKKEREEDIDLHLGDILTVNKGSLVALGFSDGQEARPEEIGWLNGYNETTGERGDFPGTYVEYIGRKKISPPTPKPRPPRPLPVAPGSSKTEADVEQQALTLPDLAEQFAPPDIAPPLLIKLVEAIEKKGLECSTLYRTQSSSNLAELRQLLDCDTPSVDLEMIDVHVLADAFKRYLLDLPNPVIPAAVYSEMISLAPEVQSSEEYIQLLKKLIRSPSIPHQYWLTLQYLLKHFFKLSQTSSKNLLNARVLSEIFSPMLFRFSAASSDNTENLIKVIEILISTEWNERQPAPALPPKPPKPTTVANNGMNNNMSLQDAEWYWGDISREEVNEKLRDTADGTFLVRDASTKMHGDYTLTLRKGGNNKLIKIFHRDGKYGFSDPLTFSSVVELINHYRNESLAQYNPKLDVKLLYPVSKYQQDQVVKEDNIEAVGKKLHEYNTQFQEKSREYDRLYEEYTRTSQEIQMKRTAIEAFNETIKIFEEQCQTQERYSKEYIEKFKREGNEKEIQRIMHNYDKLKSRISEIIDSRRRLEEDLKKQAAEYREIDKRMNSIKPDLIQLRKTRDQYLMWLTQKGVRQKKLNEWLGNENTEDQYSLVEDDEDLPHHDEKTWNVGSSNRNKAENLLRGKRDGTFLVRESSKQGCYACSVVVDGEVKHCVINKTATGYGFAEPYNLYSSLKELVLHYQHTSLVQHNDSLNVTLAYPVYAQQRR

Compound | IC50 (PI3K; PI3Kα, read-out: PI3Kα IC50) [µM] | IC50 (prostate line LNCap; Homo sapiens, LNCaP, 72 h) [µM] | IC50 (breast line MDA468; Homo sapiens, 72 h) [µM] | IC50 (prostate line LNCap) [µM] | IC50 (breast line MDA468) [µM] | IC50 (PI3K; PI3Kα IC50, PI3Kα) [µM] | IC50 (prostate line LNCap; Homo sapiens, 72 h) [µM]
COC(=O)N1CCC(n2ncc3c(N4CCOCC4)nc(-c4ccc(NC(=O)OCCN5CCCC5)cc4)nc32)CC1 [Compound 905, methyl 4-[4-morpholin-4-yl-6-(4-{[(2-pyrrolidin-1-ylethoxy)carbonyl]amino}phenyl)-1H-pyrazolo[3,4-d]pyrimidin-1-yl]piperidine-1-carboxylate] | 0.25 | 1.4 | 4.5 | – | – | – | –
COC(=O)N1CCC(n2ncc3c(N4CCOCC4)nc(-c4ccc(NC(=O)OCCN5CCOCC5)cc4)nc32)CC1 [Compound 906, methyl 4-[4-morpholin-4-yl-6-(4-{[(2-morpholin-4-ylethoxy)carbonyl]amino}phenyl)-1H-pyrazolo[3,4-d]pyrimidin-1-yl]piperidine-1-carboxylate] | 2.04 | 5.2 | 23 | – | – | – | –
COC(=O)N1CCC(n2ncc3c(N4CCOCC4)nc(-c4ccc(NC(=O)OCCN5CCN(C)CC5)cc4)nc32)CC1 [Compound 907, methyl 4-{6-[4-({[2-(4-methylpiperazin-1-yl)ethoxy]carbonyl}amino)phenyl]-4-morpholin-4-yl-1H-pyrazolo[3,4-d]pyrimidin-1-yl}piperidine-1-carboxylate] | 1.85 | 5.5 | 7 | – | – | – | –
COC(=O)N1CCC(n2ncc3c(N4CCOCC4)nc(-c4ccc(NC(=O)OCC(F)(F)F)cc4)nc32)CC1 [Compound 908, methyl 4-[4-morpholin-4-yl-6-(4-{[(2,2,2-trifluoroethoxy)carbonyl]amino}phenyl)-1H-pyrazolo[3,4-d]pyrimidin-1-yl]piperidine-1-carboxylate] | > 10 | 1.3 | 17 | – | – | – | –
COC(=O)N1CCC(n2ncc3c(N4CCOCC4)nc(-c4ccc(NC(=O)OCCCO)cc4)nc32)CC1 [Compound 909, methyl 4-[6-(4-{[(3-hydroxypropoxy)carbonyl]amino}phenyl)-4-morpholin-4-yl-1H-pyrazolo[3,4-d]pyrimidin-1-yl]piperidine-1-carboxylate] | 7.03 | 1.2 | > 60 | – | – | – | –
COC(=O)N1CCC(n2ncc3c(N4CCOCC4)nc(-c4ccc(NC(=O)Nc5ccc(N6CCOCC6)nc5)cc4)nc32)CC1 [Compound 911, methyl 4-[4-morpholin-4-yl-6-(4-{[(6-morpholin-4-ylpyridin-3-yl)carbamoyl]amino}phenyl)-1H-pyrazolo[3,4-d]pyrimidin-1-yl]piperidine-1-carboxylate] | 0.118 | 0.0008 | 0.01 | – | – | – | –
COC(=O)N1CCC(n2ncc3c(N4CCOCC4)nc(-c4ccc(NC(=O)Nc5ccc(CCN6CCCCC6)cc5)cc4)nc32)CC1 [Compound 915, methyl 4-{4-morpholin-4-yl-6-[4-({[4-(2-piperidin-1-ylethyl)phenyl]carbamoyl}amino)phenyl]-1H-pyrazolo[3,4-d]pyrimidin-1-yl}piperidine-1-carboxylate] | 0.026 | 0.00077 | 0.025 | – | – | – | –
COC(=O)N1CCC(n2ncc3c(N4CCOCC4)nc(-c4ccc(NC(=O)Nc5ccc(CCN6CCNCC6)cc5)cc4)nc32)CC1 [Compound 916, methyl 4-{4-morpholin-4-yl-6-[4-({[4-(2-piperazin-1-ylethyl)phenyl]carbamoyl}amino)phenyl]-1H-pyrazolo[3,4-d]pyrimidin-1-yl}piperidine-1-carboxylate] | 0.02 | 0.0013 | 0.11 | – | – | – | –
COC(=O)N1CCC(n2ncc3c(N4CCOCC4)nc(-c4ccc(NC(=O)Nc5ccc(CCNCCN(C)C)cc5)cc4)nc32)CC1 [Compound 919, methyl 4-{6-[4-({[4-(2-{[2-(dimethylamino)ethyl]amino}ethyl)phenyl]carbamoyl}amino)phenyl]-4-morpholin-4-yl-1H-pyrazolo[3,4-d]pyrimidin-1-yl}piperidine-1-carboxylate] | 0.008 | 0.031 | 0.42 | – | – | – | –
COC(=O)N1CCC(n2ncc3c(N4CCOCC4)nc(-c4ccc(NC(=O)Nc5ccc(CCNCCN)cc5)cc4)nc32)CC1 [Compound 920, methyl 4-[6-(4-{[(4-{2-[(2-aminoethyl)amino]ethyl}phenyl)carbamoyl]amino}phenyl)-4-morpholin-4-yl-1H-pyrazolo[3,4-d]pyrimidin-1-yl]piperidine-1-carboxylate] | 0.004 | 0.0008 | 0.3 | – | – | – | –
COC(=O)N1CCC(n2ncc3c(N4CCOCC4)nc(-c4ccc(NC(=O)Nc5ccc(CCNCCO)cc5)cc4)nc32)CC1 [Compound 921, methyl 4-[6-(4-{[(4-{2-[(2-hydroxyethyl)amino]ethyl}phenyl)carbamoyl]amino}phenyl)-4-morpholin-4-yl-1H-pyrazolo[3,4-d]pyrimidin-1-yl]piperidine-1-carboxylate] | 0.012 | 0.001 | 0.12 | – | – | – | –
COCCNCCc1ccc(NC(=O)Nc2ccc(-c3nc(N4CCOCC4)c4cnn(C5CCN(C(=O)OC)CC5)c4n3)cc2)cc1 [Compound 922, methyl 4-[6-(4-{[(4-{2-[(2-methoxyethyl)amino]ethyl}phenyl)carbamoyl]amino}phenyl)-4-morpholin-4-yl-1H-pyrazolo[3,4-d]pyrimidin-1-yl]piperidine-1-carboxylate] | 0.03 | < 0.0008 | 0.09 | – | – | – | –
O=C(Nc1ccc(-c2nc(N3CCOCC3)c3cnn(C4CCN(CC(F)(F)F)CC4)c3n2)cc1)OCCO [Compound 923, 2-hydroxyethyl (4-{4-morpholin-4-yl-1-[1-(2,2,2-trifluoroethyl)piperidin-4-yl]-1H-pyrazolo[3,4-d]pyrimidin-6-yl}phenyl)carbamate] | 0.737 | 0.11 | 1.2 | – | – | – | –
CC(=O)Nc1ccc(-c2nc(N3CCOCC3)c3cn[nH]c3n2)cc1 [Compound 926, N-[4-(4-morpholin-4-yl-1H-pyrazolo[3,4-d]pyrimidin-6-yl)phenyl]acetamide] | 0.442 | – | – | 3.7 | 8.5 | – | –
c1cc2cc(-c3nc(N4CCOCC4)c4cnn(C5CCCCO5)c4n3)ccc2[nH]1 (stereo not drawn) [Compound 928, 6-(1H-indol-5-yl)-4-morpholin-4-yl-1-(tetrahydro-2H-pyran-2-yl)-1H-pyrazolo[3,4-d]pyrimidine] | 2.42 | – | – | 4.2 | 1 | – | –
CNC(=O)Nc1ccc(-c2nc(N3CCOCC3)c3cnn(C4CCOCC4)c3n2)cc1 [Compound 939, 1-methyl-3-{4-[4-morpholin-4-yl-1-(tetrahydro-2H-pyran-4-yl)-1H-pyrazolo[3,4-d]pyrimidin-6-yl]phenyl}urea] | 0.044 | 0.14 | 0.5 | – | – | – | –
CNC(=O)Nc1ccc(-c2nc(N3CCOCC3)c3cn[nH]c3n2)cc1Cl [Compound 940, 1-[2-chloro-4-(4-morpholin-4-yl-1H-pyrazolo[3,4-d]pyrimidin-6-yl)phenyl]-3-methylurea] | 0.401 | 1.95 | 6 | – | – | – | –
CNC(=O)Nc1ccc(-c2nc(N3C[C@@H](C)O[C@@H](C)C3)c3cnn(C4CCN(Cc5cccnc5)CC4)c3n2)cc1 [Compound 941, 1-(4-{4-[(2R,6S)-2,6-dimethylmorpholin-4-yl]-1-[1-(pyridin-3-ylmethyl)piperidin-4-yl]-1H-pyrazolo[3,4-d]pyrimidin-6-yl}phenyl)-3-methylurea] | 3.88 | 2 | 9 | – | – | – | –
C[C@@H]1COCCN1c1nc(-c2cccc(O)c2)nc2c1cnn2-c1ccccc1 [Compound 942, 3-{4-[(3R)-3-methylmorpholin-4-yl]-1-phenyl-1H-pyrazolo[3,4-d]pyrimidin-6-yl}phenol] | 1.39 | 2.8 | 10.2 | – | – | – | –
CC1CN(c2nc(-c3cccc(O)c3)nc3c2cnn3-c2ccccc2)CCO1 (stereo not drawn) [Compound 943, 3-[4-(2-methylmorpholin-4-yl)-1-phenyl-1H-pyrazolo[3,4-d]pyrimidin-6-yl]phenol] | 0.276 | 1.9 | 7.5 | – | – | – | –
COC(=O)N1CCC(n2ncc3c(N4CCOCC4)nc(-c4ccc(O)cc4)nc32)CC1 [Compound 944, methyl 4-[6-(4-hydroxyphenyl)-4-morpholin-4-yl-1H-pyrazolo[3,4-d]pyrimidin-1-yl]piperidine-1-carboxylate] | 2.66 | 0.9 | 2.1 | – | – | – | –
COC(=O)N1CCC(n2ncc3c(N4CCOCC4)nc(-c4ccc(NC(=O)Oc5ccccc5)cc4)nc32)CC1 [Compound 945, methyl 4-(4-morpholin-4-yl-6-{4-[(phenoxycarbonyl)amino]phenyl}-1H-pyrazolo[3,4-d]pyrimidin-1-yl)piperidine-1-carboxylate] | – | – | 20 | – | – | > 10 | 5
CNC(=O)Oc1ccc(-c2nc(N3CCOCC3)c3cnn(C4CCN(C(=O)OC)CC4)c3n2)cc1 [Compound 946, methyl 4-(6-{4-[(methylcarbamoyl)oxy]phenyl}-4-morpholin-4-yl-1H-pyrazolo[3,4-d]pyrimidin-1-yl)piperidine-1-carboxylate] | – | – | 7 | – | – | 13 | 1.6
C=CC(=O)Nc1ccc(-c2nc(N3CCOCC3)c3cnn(C4CCN(C(=O)C(C)C)CC4)c3n2)cc1 [Compound 947, N-{4-[1-(1-isobutyrylpiperidin-4-yl)-4-morpholin-4-yl-1H-pyrazolo[3,4-d]pyrimidin-6-yl]phenyl}acrylamide] | 1.6 | 0.98 | 4.8 | – | – | – | –
COC(=O)N1CCC(n2ncc3c(N4CCOCC4)nc(-c4ccc(NC(=O)Oc5ccc(F)cc5)cc4)nc32)CC1 [Compound 948, methyl 4-[6-(4-{[(4-fluorophenoxy)carbonyl]amino}phenyl)-4-morpholin-4-yl-1H-pyrazolo[3,4-d]pyrimidin-1-yl]piperidine-1-carboxylate] | – | – | 0.7 | – | – | 8.83 | 0.22
